The values that follow come from patent US20230057359A1, “NOVEL USE OF STEVIOL” (SUNTORY HOLDINGS LIMITED, priority 2019, published 2023).

Holding throughout (assay type): cell-based
Assay [1] relates to normal human subcutaneous preadipocytes differentiated into adipocytes. Description: Fat accumulation test in adipocytes (oil red staining). As to conditions: for Relative fat accumulation level (%): 10 days, DMSO=100%. The protocol:
Normal human subcutaneous preadipocytes were precultured using the growth medium in the same manner as in Example 1. The cells were detached using 0.25% trypsin-EDTA, seeded at 10,000 cells/100 μL/well to a 96-well plate using a growth medium, and cultured overnight in a CO2 incubator. On the next day, the medium was replaced with 100 μL of a differentiation medium supplemented with varying concentrations of steviol (12.5, 25, 50, 100 or 200 μg/mL, dissolved in 0.1% DMSO (final concentration)). The cells were cultured for 10 days in a CO2 incubator to induce their differentiation into adipocytes. On the fourth and seventh days after the differentiation induction, the medium was replaced with a fresh medium (100 μL) having the same composition as above. A differentiation medium supplemented with 25 mM LiCl (Cat. No. SML0559, Sigma-Aldrich Co., LLC) was used as a positive control, and a differentiation medium supplemented with 0.1% DMSO (final concentration) was used as a negative control. Cells cultured in a growth medium were used as an untreated control (Untreated). The cells thus cultured were subjected to oil red staining. Specifically, the cells were washed twice with 100 μL of DPBS (Cat. No. 14190250, Thermo Fisher Scientific Inc.). Then, the cells were fixed (room temperature, 10 min) in 100 μL of a 10% formalin solution (Cat. No. 061-00416, FUJIFILM Wako Pure Chemical Corp.). The cells were washed twice with 100 μL of DPBS, then incubated for 1 minute in 100 μL of 60% 2-propanol (Cat. No. 166-04836, FUJIFILM Wako Pure Chemical Corp.) that replaced the medium, and stained for 15 minutes in 100 μL of an oil red staining solution (Cat. No. 00625, Sigma-Aldrich Co., LLC) that replaced the 2-propanol solution. The cells were washed once with 100 μL of 60% 2-propanol and washed twice with 100 μL of DPBS. Then, cell images were taken in 100 μL of DPBS. After subsequent replacement with 120 μL of 100% 2-propanol, oil red was extracted by incubation for 5 minutes, and 100 μL of the extracts was transferred to each well of a fresh 96-well plate. Absorbance (520 nm) was measured using a plate reader (VARIOSKAN FLASH, Thermo Fisher Scientific Inc.), and a relative fat accumulation level was calculated. Significant difference of differentiation non-induced group vs differentiation induced group (negative control group) was tested (two-tailed), and P<0.05 was regarded as having significant difference. Also, significant difference of negative control group vs steviol addition group/positive control group was tested (two-tailed) by the Dunnett test, and P<0.05 was regarded as having significant difference.

Assay [2] concerns adipocytes differentiated from normal human subcutaneous preadipocytes. Description: Lipolysis test in adipocytes (free glycerol in culture supernatant). Conditions: for Relative lipolysis level (%): 24 hours, DMSO=100%. Here is the method:
Normal human subcutaneous preadipocytes were precultured using the growth medium in the same manner as in Example 1. The cells were detached using 0.25% trypsin-EDTA, seeded at 10,000 cells/100 μL/well to a 96-well plate using the growth medium, and cultured overnight in a CO2 incubator. On the next day, the medium was replaced with the differentiation medium (100 μL), and the cells were cultured for 10 days in a CO2 incubator to induce their differentiation into adipocytes. On the fourth and seventh days after the differentiation induction, the medium was replaced with a fresh differentiation medium (100 μL). Next, the medium was replaced with a differentiation medium supplemented with varying concentrations of steviol (10, 30 or 100 μg/mL, dissolved in 0.1% DMSO (final concentration)), and the cells were cultured for 24 hours in a CO2 incubator. Then, a free glycerol level in a culture supernatant was measured using Adipolysis Assay Kit (Cat. No. 10009381, Cayman Chemical Co.) according to the manufacturer's protocol. For the measurement, absorbance (540 nm) was measured using a plate reader (VARIOSKAN FLASH, Thermo Fisher Scientific Inc.), and a relative free glycerol concentration was calculated. A differentiation medium supplemented with 10 μM isoproterenol (ISP) was used as a positive control, and a vehicle control (DMSO) composed of a differentiation medium supplemented with 0.1% DMSO (final concentration) and a no-addition control composed of only the differentiation medium were used as negative controls. Significant difference among the test groups to be compared (no-addition group vs positive control group, vehicle control group vs steviol addition group) was tested by the Student's t test. The two-tailed test was conducted, and P<0.05 was regarded as having significant difference.

In another assay the test system is HepG2 cells. Description: TG accumulation test in hepatocytes (Adipogenesis Assay Kit, oleic acid). Conditions: 0.2 mM oleic acid, 24 hours, DMSO=100%. Here is the method:
HepG2 cells were precultured using the growth medium in the same manner as in Example 5. The cells were detached using 0.25% trypsin-EDTA, seeded at 30,000 cells/100 μL/well to a 96-well plate using the growth medium, and cultured overnight in a CO2 incubator. On the next day, the medium was replaced with 100 μL of a test medium (DMEM (high glucose) supplemented with 0.2 mM oleic acid (Cat. No. 03008, Sigma-Aldrich), 10% FBS and 1% penicillin-streptomycin) supplemented with varying concentrations of steviol (12.5, 25, 50, 100 or 200 μg/mL, dissolved in 0.1% DMSO (final concentration)). The cells were cultured for 24 hours in a CO2 incubator. A test medium supplemented with 2 mM metformin (Cat. No. M2009, Tokyo Chemical Industry Co., Ltd.) was used as a positive control (Metformin), and a vehicle control composed of a test medium supplemented with 0.1% DMSO (final concentration) was used as a negative control (DMSO). Cells cultured in a test medium containing no oleic acid was used as an untreated control (Untreated). The cells thus cultured were subjected to oil red staining in the same manner as in Example 3, followed by photographing and calculation of a relative fat accumulation level. An intracellular triglyceride (TG) level in cells separately cultured under the same conditions as in the cells employed in the oil red staining was quantified using Adipogenesis Assay Kit (BioVision Inc.) according to the manufacturer's protocol. Absorbance (570 nm) was measured using a plate reader (VARIOSKAN FLASH, Thermo Fisher Scientific Inc.), and a relative TG level was calculated. Significant difference of untreated group vs fat accumulation induction group (negative control group) was tested (two-tailed) by the Student's t test as to the relative fat accumulation level and the relative TG level, and P<0.05 was regarded as having significant difference. Also, significant difference of negative control group vs steviol addition group/positive control group was tested (two-tailed) by the Dunnett test, and P<0.05 was regarded as having significant difference. The results of the fat accumulation test are shown in Table 6 and FIG. 6, and the results of the TG accumulation test are shown in Table 7 and FIG. 7.

On to `C=C1C[C@@]23CC[C@H]4[C@@](C)(CCC[C@@]4(C)C(=O)O)[C@@H]2CC[C@]1(O)C3` [Steviol, steviol], for which the “fat accumulation in adipocytes (in words)” value in assay [1] (12.5 to 200 μg/mL) is reported as “suppressed fat accumulation in adipocytes in a concentration-dependent manner”. For the same molecule, the “Relative fat accumulation level (%)” value turned out to be 98.3% in assay [1] (steviol 12.5 μg/mL); 91.3% in assay [1] (steviol 25 μg/mL); 80.7% in assay [1] (steviol 50 μg/mL); 70.8% in assay [1] (steviol 100 μg/mL); 40.0% in assay [1] (steviol 200 μg/mL). The “lipolysis in adipocytes (in words)” value in assay [2] (10, 30 or 100 μg/mL) is given as “promoted lipolysis in adipocytes in a concentration-dependent manner”. Moreover, the “Relative lipolysis level (%)” value in assay [2] (steviol 10 μg/mL) is listed as 99.5%; in assay [2] (steviol 30 μg/mL), 115.5%; in assay [2] (steviol 100 μg/mL) it was 123.4%. Further, the “Relative TG level (%)” value in the assay with HepG2 cells (steviol 12.5 μg/mL) stood at 98.8%; in the assay on HepG2 cells (steviol 25 μg/mL), 90.0%; in the assay with HepG2 cells (steviol 50 μg/mL) it was 93.7%; with HepG2 cells (steviol 100 μg/mL) it was 89.4%; in the assay on HepG2 cells (steviol 200 μg/mL), 81.4%.
